Data taken from article PMC5869419 (Journal of Natural Products, 2018).
Read-outs that look alike come from different tables or passages of the source.

Columns and labels:
in vitro = details: dog
[1] = tested on: H1N1 influenza virus A/Jena/8178/09 (Jena/8178); assay: CPE inhibition assay with Jena/8178 in MDCK cells; assay type: cell-based; details: for IC50: Influenza A virus, H1N1, MDCK, 48 h, read-out: IC50 of CPE IAV Jena/8178; for selectivity index IAV Jena/8178 [CC50/IC50]: CC50 in MDCK cells / IC50 Jena/8178
[2] = tested on: H3N2 influenza virus A/Hong Kong/68 (HK/68); assay: CPE inhibition assay with HK/68 in MDCK cells; assay type: cell-based; details: for IC50: Influenza A virus; for anti-influenza virus activity (in words): HK/68 and Jena/8178, CPE inhibition in MDCK cells; for selectivity index IAV HK/68 [CC50/IC50]: CC50 in MDCK cells / IC50 HK/68
[3] = H3N2, MDCK, 48 h, read-out: IC50 of CPE IAV HK/68
[4] = H3N2, HK/68 and Jena/8178 together, CPE inhibition in MDCK cells, read-out: IC50 values, anti-influenza virus activity stated for both strains together
[5] = HK/68 and Jena/8178 together, CPE inhibition in MDCK cells

Structure (SMILES)	CC50 at 72 h (in vitro)	CC50 in MDCK cells (MDCK cells)	IC50 [1]	IC50 [2, 3]	IC50 [2, 4]	CC50 (in vitro)	selectivity index IAV Jena/8178 [CC50/IC50] [1]	anti-influenza virus activity (in words) [2]	selectivity index IAV HK/68 [CC50/IC50] [2]	IC50 values, anti-influenza virus activity stated for both strains together [2, 5]
CC1(C)C[C@H]2C3=CC[C@@H]4[C@@]5(C)C[C@@H](O)[C@H](O)C(C)(C)[C@@H]5CC[C@@]4(C)[C@]3(C)CC[C@@]2(C(=O)O)C[C@H]1OC(=O)/C=C/c1ccccc1 [21-cinnamoyloxy-maslinic acid]	> 100 µM	lost their cytotoxicity	6.9 ± 2.97 µM	11.3 ± 7.35 µM	7 to 11 µM					
CC1(C)C[C@H]2C3=CC[C@@H]4[C@@]5(C)CC[C@H](O)C(C)(C)[C@@H]5CC[C@@]4(C)[C@]3(C)CC[C@@]2(C(=O)O)C[C@H]1OC(=O)/C=C/c1ccccc1 [21-cinnamoyloxy-oleanolic acid]	> 100 µM	lost their cytotoxicity	6.8 ± 4.12 µM	8.9 ± 3.95 µM	7 to 11 µM					
C=C(C)[C@@H]1CC[C@]2(C(=O)O)CC[C@]3(CO)[C@H](CC[C@@H]4[C@@]5(C)C[C@@H](O)[C@H](O)C(C)(C)[C@@H]5CC[C@]43C)[C@@H]12 [27-hydroxyalphitolic acid]			26.5 ± 4.71 µM			> 100 µM	>4			
C=C(C)[C@@H]1CC[C@]2(C(=O)O)CC[C@]3(C)[C@H](CC[C@@H]4[C@@]5(C)C[C@@H](O)[C@H](O[C@@H]6O[C@H](CO)[C@@H](O)[C@H](O)[C@H]6O[C@@H]6OC[C@@H](O)[C@H](O)[C@H]6O)C(C)(C)[C@@H]5CC[C@]43C)[C@@H]12 [Compound 1, 3-O-β-D-Xylopyranosyl-(1→2)-β-D-glucopyranosylalphitolic acid]			38.6 ± 15.7 µM			> 100 µM		only weak or no anti-influenza virus activity		
C=C(C)[C@@H]1CC[C@]2(C(=O)O)CC[C@]3(C)[C@H](CC[C@@H]4[C@@]5(C)C[C@@H](O)[C@H](O[C@@H]6O[C@H](CO)[C@@H](O[C@@H]7O[C@H](C)[C@@H](O)[C@H](O)[C@@H]7O)[C@H](O)[C@H]6O[C@@H]6OC[C@@H](O)[C@H](O)[C@H]6O)C(C)(C)[C@@H]5CC[C@]43C)[C@@H]12 [Compound 2, 3-O-β-D-Xylopyranosyl-(1→2)-[α-L-rhamnopyranosyl-(1→4)]-β-D-glucopyranosylalphitolic acid]	10.4 ± 0.52 µM		1.9 ± 0.08 µM	1.1 ± 0.44 µM			6		11	
C=C(C)[C@@H]1CC[C@]2(C(=O)O)CC[C@]3(CO)[C@H](CC[C@@H]4[C@@]5(C)C[C@@H](O)[C@H](O[C@@H]6O[C@H](CO)[C@@H](O)[C@H](O)[C@H]6O[C@@H]6OC[C@@H](O)[C@H](O)[C@H]6O)C(C)(C)[C@@H]5CC[C@]43C)[C@@H]12 [Compound 3, 3-O-β-D-Xylopyranosyl-(1→2)-β-D-glucopyranosyl-27-hydroxyalphitolic acid]						> 100 µM		only weak or no anti-influenza virus activity		
C=C(C)[C@@H]1CC[C@]2(C(=O)O)CC[C@]3(CO)[C@H](CC[C@@H]4[C@@]5(C)C[C@@H](O)[C@H](O[C@@H]6O[C@H](CO)[C@@H](O)[C@H](O)[C@H]6O[C@@H]6O[C@H](CO)[C@@H](O)[C@H](O)[C@H]6O)C(C)(C)[C@@H]5CC[C@]43C)[C@@H]12 [Compound 4, 3-O-β-D-Glucopyranosyl-(1→2)-β-D-glucopyranosyl-27-hydroxyalphitolic acid]			43 ± 11.8 µM			> 100 µM	>2	only weak or no anti-influenza virus activity		
C[C@H]1O[C@@H](O[C@H]2[C@H](O)[C@@H](O[C@@H]3OC[C@@H](O)[C@H](O)[C@H]3O)[C@H](O[C@H]3[C@H](O)C[C@]4(C)[C@H]5CC=C6[C@@H]7CC(C)(C)CC[C@]7(C(=O)O)CC[C@@]6(C)[C@]5(C)CC[C@H]4C3(C)C)O[C@@H]2CO)[C@@H](O)[C@@H](O)[C@@H]1O [Compound 5, 3-O-β-D-Xylopyranosyl-(1→2)-[α-L-rhamnopyranosyl-(1→4)]-β-D-glucopyranosylmaslinic acid]	15.5 ± 1.69 µM			1.7 ± 0.07 µM					9	low micromolar range
C[C@H]1O[C@@H](O[C@H]2[C@H](O)[C@@H](O[C@@H]3OC[C@@H](O)[C@H](O)[C@H]3O)[C@H](O[C@H]3[C@H](O)C[C@]4(C)[C@H]5CC=C6[C@@H]7CC(C)(C)[C@H](OC(=O)/C=C/c8ccccc8)C[C@]7(C(=O)O)CC[C@@]6(C)[C@]5(C)CC[C@H]4C3(C)C)O[C@@H]2CO)[C@@H](O)[C@@H](O)[C@@H]1O [Compound 6, 3-O-β-D-Xylopyranosyl-(1→2)-[α-L-rhamnopyranosyl-(1→4)]-β-D-glucopyranosyl-21-cinnamoyloxymaslinic acid]	5.8 ± 0.69 µM		1.8 ± 0.03 µM	1.8 ± 0.23 µM			3		3	low micromolar range
C[C@H]1O[C@H](O[C@H]2[C@H](O[C@H]3[C@H](O[C@H]4CC[C@]5(C)[C@H]6CC=C7[C@@H]8CC(C)(C)[C@H](OC(=O)/C=C/c9ccccc9)C[C@]8(C(=O)O)CC[C@@]7(C)[C@]6(C)CC[C@H]5C4(C)C)OC[C@@H](O)[C@@H]3O)OC[C@@H](O)[C@@H]2O)[C@@H](O)[C@@H](O)[C@@H]1O [Compound 7, 3-O-α-L-Rhamnopyranosyl-(1→2)-β-D-xylopyranosyl-(1→2)-β-D-xylopyranosyl-21-cinnamoyloxyoleanolic acid]	1.5 ± 0.8 µM		0.27 ± 0.13 µM	0.05 ± 0.02 µM	0.05 to 0.27 µM		6		31	
C[C@H]1O[C@H](O[C@@H]2CO[C@@H](O[C@H]3CC[C@]4(C)[C@H]5CC=C6[C@@H]7CC(C)(C)[C@H](OC(=O)/C=C/c8ccccc8)C[C@]7(C(=O)O)CC[C@@]6(C)[C@]5(C)CC[C@H]4C3(C)C)[C@H](O[C@@H]3OC[C@@H](O)[C@H](O)[C@H]3O[C@H]3O[C@H](C)[C@@H](O)[C@H](O)[C@@H]3O)[C@H]2O)[C@@H](O)[C@@H](O)[C@@H]1O [Compound 8, 3-O-α-L-Rhamnopyranosyl-(1 →2)-β-D-xylopyranosyl-(1 →2)-[α-L-rhamnopyranosyl-(1 →4)]-β-D-xylopyranosyl-21-cinnamoyloxyoleanolic acid]	1.2 ± 0.1 µM		0.16 ± 0.07 µM	0.17 ± 0.18 µM	0.05 to 0.27 µM		7		7	
C=C(C)[C@@H]1CC[C@]2(C(=O)O)CC[C@]3(C)[C@H](CC[C@@H]4[C@@]5(C)C[C@@H](O)[C@H](O)C(C)(C)[C@@H]5CC[C@]43C)[C@@H]12 [alphitolic acid]	49.9 ± 6.68 µM									
CC1(C)CC[C@]2(C(=O)O)CC[C@]3(C)C(=CC[C@@H]4[C@@]5(C)C[C@@H](O)[C@H](O)C(C)(C)[C@@H]5CC[C@]43C)[C@@H]2C1 [maslinic acid]	23.3 ± 2.93 µM									
CCOC(=O)C1=C[C@@H](OC(CC)CC)[C@H](NC(C)=O)[C@@H](N)C1 [oseltamivir, reference compound]			0.064 ± 0.013 µM	0.003 ± 0.001 µM						
